According to PMC12809495, “Potential 14-3-3 binding sites in sirtuins reveal extended phosphosite-recognition modes” (Acta Crystallographica Section F: Structural Biology …, 2026):
Read-outs that look alike come from different tables or passages of the source. Where a SMILES comes first, the peptide text is derived from it. [ ]: non-standard residue; d: D form. pS = N[C@@H](COP(=O)(O)O)C(=O)O

Tests used:
14-3-3σ-ΔC = target: T1, 14-3-3σ-ΔC (Homo sapiens, UniProt P31947); test: Label-free microscale thermophoresis (MST) binding, 14-3-3σ
T1 construct: His6; made in house; host or cells: Escherichia coli BL21 Rosetta (DE3)
T1 sequence (P31947 1-231 limits assumed): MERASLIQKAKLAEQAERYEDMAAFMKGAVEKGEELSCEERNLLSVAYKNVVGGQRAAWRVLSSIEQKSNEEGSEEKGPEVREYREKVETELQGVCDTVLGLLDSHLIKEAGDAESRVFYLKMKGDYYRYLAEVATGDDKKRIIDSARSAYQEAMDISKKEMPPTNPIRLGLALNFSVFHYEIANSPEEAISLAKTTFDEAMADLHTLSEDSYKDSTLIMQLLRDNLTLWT
Procedure: (§1) The binding of phosphorylated sirtuin peptides (Fig. 1 ▸) was analyzed using the change in the intrinsic fluorescence signal of the 14-3-3 proteins measured with label-free microscale thermophoresis using a Nanotemper Monolith NT.LabelFree or NT.115. A typical binding experiment using 0.6 µM 14-3-3 protein was performed in a modified MST buffer consisting of 25 mM MES pH 6.5, 5 mM MgCl2, 5 mM CaCl2. The measurements were performed at 25°C using a LED power of 10–40%. All measurements were performed at least in duplicate, and the results shown are representative measurements individually fitted using GraFit 7 (Erathicus Software, Horley, United Kingdom).
(§2) Figure 1 Classification and analysis of sirtuin PSSM results for potential 14-3-3 phosphoserine binding sites. Peptides with a gray background were not analyzed experimentally. Score is the overall PSSM score for the phosphorylation site; rank is the order within the 17 proposed sirtuin binding sites. Conserved residues in the 14-3-3 motifs are marked in green. Residues with restricted (proline) or very flexible (glycine) protein backbone or with a very large side chain (tryptophan) are marked in red. Amino acids with the same or similar hydrophobicity/size are shown in magenta. Kd values from duplicate measurements are colored green for Kd < 100 µM. Fields marked in red indicate no binding or no successful experiment. TEXT PRINTED IN THE PICTURE: Sirt1 S26: Affinity estimates by MicroScale Thermophoresis [μM], 14-3-3 isoform sigma: none | Sirt1 S670: Affinity estimates by MicroScale Thermophoresis [μM], 14-3-3 isoform gamma: aggr.; Affinity estimates by MicroScale Thermophoresis [μM], 14-3-3 isoform epsilon: > 183; Affinity estimates by MicroScale Thermophoresis [μM], 14-3-3 isoform theta: 93; Affinity estimates by MicroScale Thermophoresis [μM], 14-3-3 isoform sigma: 5 | Sirt3 S103: Affinity estimates by MicroScale Thermophoresis [μM], 14-3-3 isoform gamma: aggr.; Affinity estimates by MicroScale Thermophoresis [μM], 14-3-3 isoform epsilon: > 267; Affinity estimates by MicroScale Thermophoresis [μM], 14-3-3 isoform theta: 52; Affinity estimates by MicroScale Thermophoresis [μM], 14-3-3 isoform sigma: 10 | Sirt3 S103wt: Affinity estimates by MicroScale Thermophoresis [μM], 14-3-3 isoform gamma: aggr.; Affinity estimates by MicroScale Thermophoresis [μM], 14-3-3 isoform theta: none; Affinity estimates by MicroScale Thermophoresis [μM], 14-3-3 isoform sigma: none | Sirt3 S105: Affinity estimates by MicroScale Thermophoresis [μM], 14-3-3 isoform gamma: aggr.; Affinity estimates by MicroScale Thermophoresis [μM], 14-3-3 isoform epsilon: > 215; Affinity estimates by MicroScale Thermophoresis [μM], 14-3-3 isoform theta: 60; Affinity estimates by MicroScale Thermophoresis [μM], 14-3-3 isoform sigma: none | Sirt5 S168: Affinity estimates by MicroScale Thermophoresis [μM], 14-3-3 isoform epsilon: aggr.; Affinity estimates by MicroScale Thermophoresis [μM], 14-3-3 isoform theta: aggr.; Affinity estimates by MicroScale Thermophoresis [μM], 14-3-3 isoform sigma: > 329 | Sirt6 T337: Affinity estimates by MicroScale Thermophoresis [μM], 14-3-3 isoform epsilon: > 420; Affinity estimates by MicroScale Thermophoresis [μM], 14-3-3 isoform sigma: 12 | Sirt6 S338: Affinity estimates by MicroScale Thermophoresis [μM], 14-3-3 isoform epsilon: 19; Affinity estimates by MicroScale Thermophoresis [μM], 14-3-3 isoform sigma: 24 | Sirt7 S136: Affinity estimates by MicroScale Thermophoresis [μM], 14-3-3 isoform epsilon: none; Affinity estimates by MicroScale Thermophoresis [μM], 14-3-3 isoform theta: 30; Affinity estimates by MicroScale Thermophoresis [μM], 14-3-3 isoform sigma: 49
For nine of the sites, including sites from all sirtuin isoforms except Sirt4, endecameric phosphopeptides were chemically synthesized for in vitro analysis. […]

14-3-3 isoform theta = target: T2, 14-3-3 isoform theta (Homo sapiens, UniProt P27348); test: Label-free microscale thermophoresis (MST) binding, 14-3-3 theta; conditions: label-free MST, 0.6 µM 14-3-3 protein, 25 mM MES pH 6.5, 5 mM MgCl2, 5 mM CaCl2, 25°C; Kd from duplicate measurements; read-out: Affinity estimates by MicroScale Thermophoresis, 14-3-3 isoform theta (Kd)
T2 construct: His6; made in house; host or cells: Escherichia coli BL21 Rosetta (DE3)
T2 sequence (P27348 1-245): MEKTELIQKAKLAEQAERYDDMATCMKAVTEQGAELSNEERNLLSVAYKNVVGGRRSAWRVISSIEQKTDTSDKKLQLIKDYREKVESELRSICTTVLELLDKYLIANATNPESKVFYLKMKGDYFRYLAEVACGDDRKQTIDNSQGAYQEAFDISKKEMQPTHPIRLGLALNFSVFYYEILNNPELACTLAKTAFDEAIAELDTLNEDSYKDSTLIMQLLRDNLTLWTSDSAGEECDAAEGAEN
Procedure: as §1, §2

14-3-3 isoform epsilon = target: T3, 14-3-3 isoform epsilon (Homo sapiens, UniProt P62258); test: Label-free microscale thermophoresis (MST) binding, 14-3-3 epsilon; conditions: label-free MST, 0.6 µM 14-3-3 protein, 25 mM MES pH 6.5, 5 mM MgCl2, 5 mM CaCl2, 25°C; Kd from duplicate measurements; read-out: Affinity estimates by MicroScale Thermophoresis, 14-3-3 isoform epsilon (Kd)
T3 construct: His6; made in house; host or cells: Escherichia coli BL21 Rosetta (DE3)
T3 sequence (P62258 1-255): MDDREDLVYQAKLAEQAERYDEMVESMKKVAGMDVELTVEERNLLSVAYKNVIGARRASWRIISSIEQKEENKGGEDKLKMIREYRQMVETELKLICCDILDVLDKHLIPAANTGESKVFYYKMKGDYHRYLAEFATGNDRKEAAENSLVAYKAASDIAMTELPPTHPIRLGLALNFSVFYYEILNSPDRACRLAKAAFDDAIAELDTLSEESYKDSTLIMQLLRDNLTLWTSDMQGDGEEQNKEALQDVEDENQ
Procedure: as §1, §2

Kd (14-3-3σ-ΔC; Fig. 1, label-free MST, 0.6 µM 14-3-3 protein, 25 mM MES pH 6.5, 5 mM MgCl2, 5 mM CaCl2, 25°C, Kd from duplicate measurements, read-out: Affinity estimates by MicroScale Thermophoresis, 14-3-3 isoform sigma (Kd)): 5 µM
Kd (14-3-3σ-ΔC; Fig. 3a, average of two independent MST experiments, 25°C, MES pH 6.5, read-out: average Kd, MST titration of 14-3-3σ-ΔC): 1.7 ± 1.3 µM
Kd (14-3-3 isoform theta): 93 µM
Kd (14-3-3 isoform epsilon): > 183 µM
Structure (SMILES): CC(C)C[C@H](NC(=O)[C@@H](N)C(C)C)C(=O)N[C@@H](CO)C(=O)N[C@@H](CO)C(=O)N[C@@H](CO)C(=O)N[C@@H](COP(=O)(O)O)C(=O)N[C@@H](CS)C(=O)NCC(=O)N[C@@H](CO)C(=O)N[C@@H](CC(N)=O)C(=O)N[C@@H](CO)C(=O)O [Sirt1^pS670] (H-VLSSS[pS]CGSNS-OH)
